Experiments:
[1] = biological target: PIK3CA (human) (UniProt P42336); assay: Enzyme Assay
[2] = biological target: PIK3CA (human) (UniProt P42336); assay: Assessment of Cell Proliferation in MDA-MB-361.1 Cells; conditions: mda-mb-361
[3] = biological target: PIK3CA (human) (UniProt P42336); assay: Assessment of Cell Proliferation in PC3 Cells; conditions: pc-3

Chain of PIK3CA (human) (P42336 whole entry, looked up): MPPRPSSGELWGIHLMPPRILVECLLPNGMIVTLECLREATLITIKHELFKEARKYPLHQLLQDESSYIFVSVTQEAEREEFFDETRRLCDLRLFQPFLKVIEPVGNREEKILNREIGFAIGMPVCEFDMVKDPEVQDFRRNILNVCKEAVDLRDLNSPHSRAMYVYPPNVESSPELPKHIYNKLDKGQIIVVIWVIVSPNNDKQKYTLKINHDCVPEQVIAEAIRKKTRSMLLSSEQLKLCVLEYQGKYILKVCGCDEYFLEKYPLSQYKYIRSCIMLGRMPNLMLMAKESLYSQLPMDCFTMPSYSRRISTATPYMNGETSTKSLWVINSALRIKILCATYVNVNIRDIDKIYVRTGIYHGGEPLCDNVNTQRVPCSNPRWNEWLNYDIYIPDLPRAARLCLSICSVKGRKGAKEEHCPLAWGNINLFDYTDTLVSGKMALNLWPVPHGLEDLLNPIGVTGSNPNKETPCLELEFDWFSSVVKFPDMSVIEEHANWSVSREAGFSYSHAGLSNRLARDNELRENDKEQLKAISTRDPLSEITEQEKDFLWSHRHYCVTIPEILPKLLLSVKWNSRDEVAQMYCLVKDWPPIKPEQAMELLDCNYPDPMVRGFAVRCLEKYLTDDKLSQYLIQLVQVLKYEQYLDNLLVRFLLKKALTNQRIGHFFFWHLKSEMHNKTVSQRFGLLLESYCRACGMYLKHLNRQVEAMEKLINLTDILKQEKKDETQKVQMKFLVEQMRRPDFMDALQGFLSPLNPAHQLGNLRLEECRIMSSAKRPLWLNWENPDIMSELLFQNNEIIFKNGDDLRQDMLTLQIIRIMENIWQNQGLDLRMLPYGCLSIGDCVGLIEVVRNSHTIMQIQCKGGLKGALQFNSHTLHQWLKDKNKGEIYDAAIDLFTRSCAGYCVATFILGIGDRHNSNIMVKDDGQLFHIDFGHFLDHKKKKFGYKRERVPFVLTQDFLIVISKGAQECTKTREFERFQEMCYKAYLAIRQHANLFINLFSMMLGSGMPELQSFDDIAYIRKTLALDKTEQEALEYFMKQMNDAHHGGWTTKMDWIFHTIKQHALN

Compound | IC50 [1] [nM] | EC50 [2] [nM] | EC50 [3] [nM]
CC1(C)OCCn2c1nc1c(N3CCOCC3)nc(-c3ccnc(N)c3)nc12 | 685 | – | –
FC(F)(F)C1OCCn2c1nc1c(N3CCOCC3)nc(-c3cccc4[nH]ncc34)nc12 (centres undefined) | 45.2 | 4400 | 6900
Nc1ncc(-c2nc(N3CCOCC3)c3nc4n(c3n2)CCC4)cn1 | 8.26 | – | –
CC1(C)OCCn2c1nc1c(N3CCOCC3)nc(-c3cnc(N)cc3C(F)(F)F)nc12 | 3.89 | – | –
Nc1ncc(-c2nc(N3CCOCC3)c3nc4n(c3n2)CCOC4)cn1 | 4.32 | – | –
Nc1ccc(-c2nc(N3CCOCC3)c3nc4n(c3n2)CCCC4)cn1 | 50.7 | – | –
C[C@@H]1CN(c2nc(-c3cnc(N)nc3)nc3c2nc2n3CCOC2(C)C)C[C@H](C)O1 | 14 | 3100 | 3800
CC(=O)Nc1ccc(-c2nc(N3CCOCC3)c3nc4n(c3n2)CCOC4(C)C)cn1 | 49 | – | –
CC[C@]1(C)OCCn2c1nc1c(N3CCOCC3)nc(-c3cnc(N)nc3)nc12 | 3.11 | – | –
CC1(C)OCCn2c1nc1c(N3CCOCC3)nc(-c3cnc4[nH]ccc4c3)nc12 | 14 | – | –
CC(C)Cn1cc(-c2nc(N3CCOCC3)c3nc4n(c3n2)CCOC4(C)C)cn1 | – | 10000 | 10000
CC[C@@]1(C)OCCn2c1nc1c(N3CCOCC3)nc(-c3cnc(N)nc3)nc12 | 5.96 | – | –
Nc1ncc(-c2nc(N3CCOCC3)c3nc4n(c3n2)CCC2(CC2)O4)cn1 | 1.37 | – | –
CC(C)NC(=O)Nc1ccc(-c2nc(N3CCOCC3)c3nc4n(c3n2)CCOC4(C)C)cc1 | 337 | 1200 | 1300
CC1c2nc3c(N4CCOCC4)nc(-c4cnc(N)nc4)nc3n2CCN1C (centres undefined) | 6.89 | 889 | 1900
CCNC(=O)Nc1ccc(-c2nc(N3CCOCC3)c3nc4n(c3n2)CCOC4(C)C)cc1 | 41.7 | – | –
CC1(C)OCCn2c1nc1c(N3CCOCC3)nc(-c3ccccc3NS(C)(=O)=O)nc12 | 638 | – | –
CC1(C)CCn2c(nc3c(N4CCOCC4)nc(-c4cnc(N)nc4)nc32)O1 | 5.09 | 958 | 1800
Nc1ncc(-c2nc(N3CCOCC3)c3nc4n(c3n2)CCOC42COC2)cn1 | 2.45 | – | –
CC1NC(=O)Cn2c1nc1c(N3CCOCC3)nc(-c3cnc(N)nc3)nc12 (centres undefined) | 4.28 | – | –
CC1(C)OCCn2c1nc1c(N3CCOCC3)nc(-c3cn[nH]c3)nc12 | 382 | – | –
CCNC(=O)Nc1ccc(-c2nc(N3CCOCC3)c3c(n2)C2(C)CCOC2N3C)cc1 (centres undefined) | 2100 | 315 | 208
CC1(C)OCCc2c1sc1c(N3CCOCC3)nc(-c3cnc(N)nc3)nc21 | 1 | 237 | 215

Compound | IC50 [1] [nM] | EC50 [2] [nM] | EC50 [3] [nM]
CC1(C)OCCn2c1nc1c(N3C[C@@H]4C[C@H]3CO4)nc(-c3cnc(N)nc3)nc12 | 394 | 3400 | 3600
Nc1ncc(-c2nc(N3CCOCC3)c3c(n2)N2CCC[C@H]2CO3)cn1 | 77.9 | 3200 | 2000
CC1(C)OCCn2c1nc1c(N3CCOCC3)nc(-c3ccc(N)nc3)nc12 | 18.6 | – | –
Oc1cccc(-c2nc(N3CCOCC3)c3nc4n(c3n2)CCOC4C(F)(F)F)c1 (centres undefined) | 79.7 | 920 | 1100
CC1(C)CN(c2nc(-c3cnc(N)nc3)nc3c2nc2n3CCOC2(C)C)CCO1 | 201 | 1500 | 1400
Nc1cc(C(F)(F)F)c(-c2nc(N3CCOCC3)c3nc4n(c3n2)CCOC4)cn1 | 11.2 | – | –
Nc1ncc(-c2nc(N3CCOCC3)c3nc4n(c3n2)CCCC4)cn1 | 3.88 | – | –
CN(C)c1cnc(-c2nc(N3CCOCC3)c3nc4n(c3n2)CCOC4(C)C)cn1 | – | 10000 | 10000
CC1(C)OCCn2c1nc1c(N3CCOCC3)nc(-c3cccc(O)c3)nc12 | 4.58 | – | –
CNC(=O)Nc1ccc(-c2nc(N3CCOCC3)c3nc4n(c3n2)CCOC4(C)C)cc1 | 6.71 | – | –
CC1(C)OCCn2c1nc1c(N3CCOCC3)nc(-c3cncc(C(N)=O)c3)nc12 | 35.2 | – | –
CC1=COC(C)(C)c2nc3c(N4CCOCC4)nc(-c4cnc(N)nc4)nc3n21 | 4.73 | – | –
Nc1ccc(-c2nc(N3CCOCC3)c3nc4n(c3n2)CCOC4C(F)(F)F)cn1 (centres undefined) | 45.2 | – | –
Nc1ncc(-c2nc(N3CCOCC3)c3nc4n(c3n2)CCO[C@H]4C(F)(F)F)cn1 | 3.57 | 424 | 697
CC(=O)Nc1ncc(-c2nc(N3CCOCC3)c3nc4n(c3n2)CCOC4(C)C)cn1 | 242 | – | –
CC1(C)OCCn2c1cc1c(N3CCOCC3)nc(-c3cnc(N)nc3)nc12 | 0.831 | 94 | 185
Nc1ncc(-c2nc(N3CCOCC3)c3nc4n(c3n2)CCO[C@@H]4C(F)(F)F)cn1 | 3.45 | – | –
CC1(C)OCCn2c1nc1c(N3CCOCC3)nc(-c3cccc4[nH]ncc34)nc12 | 19.8 | – | –
CC1(C)OCCn2c1nc1c(N3CCOCC3)nc(-c3ccc(N)cn3)nc12 | – | 10000 | 10000
Nc1ncc(-c2nc(N3CCOCC3)c3nc4n(c3n2)CCCO4)cn1 | 6.84 | – | –
CC1(C)OCCn2c1nc1c(N3CCOCC3)nc(-c3ccc(N)cc3)nc12 | 541 | – | –
CN1CCn2c(nc3c(N4CCOCC4)nc(-c4cnc(N)nc4)nc32)C1=O | 21.5 | – | –

Reference: the Kinase Knowledgebase extract (Sharma et al. 2016)
